In PubChem BioAssay (NCI):
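1) Cells in 96-well plates. 2) Compound, 48 h, 5 concentrations. 3) Linear interpolation between surrounding doses. 4) Unreached endpoint = highest concentration. GI50: concentration for 50% inhibition of growth. Definition used: TGI = concentration required for complete inhibition of growth.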

Legend:
Assay in all cases: NCI tumour cell line growth inhibition, 48 h; in the data active means GI50 below about 0.43 µM; inactive means the rest
[1] = system: 786-0 renal
[2] = system: A498 renal
[3] = system: A549 NSCLC
[4] = system: ACHN renal
[5] = system: BT-549 breast
[6] = system: CAKI-1 renal
[7] = system: CCRF-CEM leukemia
[8] = system: COLO 205 colon
[9] = system: DU-145 prostate
[10] = system: EKVX NSCLC
[11] = system: HCC-2998 colon
[12] = system: HCT-116 colon
[13] = system: HCT-15 colon
[14] = system: HL-60(TB) leukemia
[15] = system: HOP-62 NSCLC
[16] = system: HOP-92 NSCLC
[17] = system: HT29 colon
[18] = system: IGROV1 ovarian
[19] = system: K-562 leukemia
[20] = system: KM12 colon
[21] = system: LOX IMVI melanoma
[22] = system: M14 melanoma
[23] = system: MALME-3M melanoma
[24] = system: MCF7 breast
[25] = system: MDA-MB-231 breast
[26] = system: MDA-MB-435
[27] = system: MDA-N
[28] = system: MOLT-4 leukemia
[29] = system: NCI-H226 lung
[30] = system: NCI-H23 lung
[31] = system: NCI-H460 lung
[32] = system: NCI-H522 lung
[33] = system: NCI/ADR-RES ovarian
[34] = system: OVCAR-4 ovarian
[35] = system: OVCAR-5 ovarian
[36] = system: OVCAR-8 ovarian
[37] = system: PC-3 prostate
[38] = system: RPMI-8226 leukemia
[39] = system: RXF 393 renal
[40] = system: SF-268 CNS
[41] = system: SF-539 CNS
[42] = system: SK-MEL-2 melanoma
[43] = system: SK-MEL-28 melanoma
[44] = system: SN12C renal
[45] = system: SNB-19 CNS
[46] = system: SNB-75 CNS
[47] = system: SR leukemia
[48] = system: SW-620 colon
[49] = system: T-47D breast
[50] = system: TK-10 renal
[51] = system: U251 CNS
[52] = system: UACC-257 melanoma
[53] = system: UACC-62 melanoma
[54] = system: UO-31 renal

CC(CCC(=O)O)[C@H]1CCC2[C@@H]3CC[C@@H]4CC(O)CC[C@]4(C)C3CC[C@@]21C (some centres not stated)
37.9 µM: TGI [30]
87.9 µM: TGI [16]
> 100 µM: TGI [1] | TGI [2] | TGI [3] | TGI [4] | TGI [5] | TGI [9] | TGI [10] | TGI [12] | TGI [13] | TGI [14] | TGI [15] | TGI [17] | TGI [18] | TGI [19] | TGI [20] | TGI [21] | TGI [23] | TGI [24] | TGI [25] | TGI [26] | TGI [27] | TGI [29] | TGI [32] | TGI [33] | TGI [34] | TGI [35] | TGI [36] | TGI [39] | TGI [40] | TGI [43] | TGI [44] | TGI [45] | TGI [46] | TGI [48] | TGI [49] | TGI [50] | TGI [51] | TGI [52] | TGI [53]
87.1 µM: TGI [42]
85.4 µM: TGI [47]
85.3 µM: TGI [7]
72.4 µM: TGI [41]
53.1 µM: TGI [8]
67.3 µM: TGI [54]
97.8 µM: TGI [22]
79 µM: TGI [28]
97.4 µM: TGI [31]
61 µM: TGI [11]
72.3 µM: TGI [6] | TGI [37]
inactive: GI50 [1] 49.3 µM | GI50 [3] 25.3 µM | GI50 [4] 29.3 µM | GI50 [5] 53.9 µM | GI50 [6] 26.7 µM | GI50 [7] 21.9 µM | GI50 [8] 23.7 µM | GI50 [9] 44.4 µM | GI50 [10] 44.4 µM | GI50 [11] 22.2 µM | GI50 [12] 30.4 µM | GI50 [13] 46.4 µM | GI50 [14] 52.3 µM | GI50 [15] 37.2 µM | GI50 [16] 28 µM | GI50 [17] 46.1 µM | GI50 [18] 40.7 µM | GI50 [19] 32.6 µM | GI50 [20] 40.5 µM | GI50 [21] 29.5 µM | GI50 [22] 30.4 µM | GI50 [23] > 100 µM | GI50 [24] 30.2 µM | GI50 [25] 58.7 µM | GI50 [26] 37.5 µM | GI50 [27] 60.6 µM | GI50 [28] 22 µM | GI50 [29] 63.5 µM | GI50 [30] 15.6 µM | GI50 [31] 31 µM | GI50 [32] 68.1 µM | GI50 [33] 54.3 µM | GI50 [34] 31.4 µM | GI50 [35] > 100 µM | GI50 [36] 50 µM | GI50 [37] 26.2 µM | GI50 [38] 23.6 µM | GI50 [39] 46.9 µM | GI50 [40] > 100 µM | GI50 [41] 26 µM | GI50 [42] 28.5 µM | GI50 [43] 54.4 µM | GI50 [44] > 100 µM | GI50 [45] 56.5 µM | GI50 [46] 66.1 µM | GI50 [47] 23.4 µM | GI50 [48] 42.4 µM | GI50 [49] 33.7 µM | GI50 [50] 42.2 µM | GI50 [51] 40.2 µM | GI50 [52] 27.7 µM | GI50 [53] 38.6 µM | GI50 [54] 22.1 µM
57.1 µM: TGI [38]
